The values below come from patent US20230052740A1, “MODULATORS OF CIRCADIAN RHYTHMS AND USES THEREOF” (The Regents of the University of California, priority 2019, published 2023).

The target of one data set is T1, MT2 (Homo sapiens, UniProt P49286).
T1 sequence (P49286 1-362): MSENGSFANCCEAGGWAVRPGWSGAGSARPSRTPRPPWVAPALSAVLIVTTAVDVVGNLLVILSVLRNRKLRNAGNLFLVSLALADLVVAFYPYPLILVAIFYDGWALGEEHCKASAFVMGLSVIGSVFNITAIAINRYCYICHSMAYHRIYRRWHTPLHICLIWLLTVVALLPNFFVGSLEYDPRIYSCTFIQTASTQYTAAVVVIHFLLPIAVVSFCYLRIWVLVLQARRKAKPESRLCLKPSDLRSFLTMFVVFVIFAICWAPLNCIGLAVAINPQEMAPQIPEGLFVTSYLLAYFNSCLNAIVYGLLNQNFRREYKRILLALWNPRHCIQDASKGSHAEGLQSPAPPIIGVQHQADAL
The data set is described as follows: cAMP assay (GloSensor), isoproterenol-stimulated cAMP in HEK cells. To be noted: for hMT2 pEC50: FIG. 3D-3F, transiently expressed receptor, isoproterenol-stimulated cAMP production; for hMT2 Schild slope / hMT2 pKB: Schild analysis, competitive antagonism of melatonin. The arrangement: expressed in transfected cells; host or cells: HEK-T (HEK-293 T) cells, co-transfected with GloSensor DNA. The data set is classed as cell-based. As to the method:
MT1 and MT2 receptors were tested using Promega's spilt luciferase based GboSensor cAMP biosensor technology. HEK-T cells were plated in 15 cm cell culture dish (at a density of 18 million cells) containing DMEM composed of 10% dialyzed FBS, 2 mM L-glutamine, 100 units/ml penicillin G, 100 μg/ml streptomycin for 4-6 hour. Then, cells were co-transfected with 8 μg of construct which encodes either MT1 or MT2 (de-Tangonized constructs) and […] of Glosensor DNA. […] The next day, cell medium were discarded and loaded with 20 μl of assay buffer (1×HBSS, 20 mM HEPES, pH 7.4, 0.1% BSA). To measure agonist activity of MT1 or MT2 receptor, 10 μl of test compound solution at 3× final concentration was added for 15 minutes followed by addition of 10 μl of luciferin/isoproterenol mixture (at a final concentration of 4 mM and 200 nM respectively) for another 15 mins for luminescence quantification. Then, plates were counted using SpectraMax luminescence reader (Molecular Device). Data were analyzed using GraphPad Prism 6.0.
(In general: Cyclic AMP is a second messenger, typically raised through Gs and lowered through Gi signalling.)

The nature of data set [1]: Mouse pharmacokinetic (PK) studies. The data set is classed as in vivo. To be noted: for Brain/Plasma Ratio: 30′; for T1/2: plasma.
The target of another data set is hMT1 (Homo sapiens, UniProt P48039). The data set can be described thus: cAMP assay (GloSensor), isoproterenol-stimulated cAMP in HEK cells. Format: cell-based. The arrangement: expressed in transfected cells; host or cells: HEK-T (HEK-293 T) cells, co-transfected with GloSensor DNA. The note with it: for hMT1 pEC50: FIG. 3D-3F, transiently expressed receptor, isoproterenol-stimulated cAMP production; for inverse agonist efficacy: at MT1; for selectivity for MT1 over MT2: cAMP, inverse agonists. As to the method: HEK-293 T cells were maintained with complete Dulbecco's modified Eagle's medium (DMEM), which is composed of 10% fetal bovine serum (FBS), 2 mM L-glutamine, 100 units/ml penicillin G, 100 μg/ml streptomycin at 37° C. in the presence of 5% CO2
MT1 and MT2 receptors were tested using Promega's spilt luciferase based GboSensor cAMP biosensor technology. HEK-T cells were plated in 15 cm cell culture dish (at a density of 18 million cells) containing DMEM composed of 10% dialyzed FBS, 2 mM L-glutamine, 100 units/ml penicillin G, 100 μg/ml streptomycin for 4-6 hour. Then, cells were co-transfected with 8 μg of construct which encodes either MT1 or MT2 (de-Tangonized constructs) and […] of Glosensor DNA. Next day, transfected cells were seeded into poly-L-lysinecoated 384-well white clear bottom cell culture plates with complete DMEM with 1% dialized FBS at a density of 20,000 cells per well for another 24 h. The next day, cell medium were discarded and loaded with 20 μl of assay buffer (1×HBSS, 20 mM HEPES, pH 7.4, 0.1% BSA). To measure agonist activity of MT1 or MT2 receptor, 10 μl of test compound solution at 3× final concentration was added for 15 minutes followed by addition of 10 μl of luciferin/isoproterenol mixture (at a final concentration of 4 mM and 200 nM respectively) for another 15 mins for luminescence quantification. Then, plates were counted using SpectraMax luminescence reader (Molecular Device). Data were analyzed using GraphPad Prism 6.0.

The mark [2] stands for this setting: FIG. 3D-3E, normalized to isoproterenol-stimulated basal activity.
[3] abbreviates: Table 2, cell marked Inverse (inverse agonist).
Where [4] appears, read: Schild analysis, competitive antagonism of melatonin.
Where [5] appears, read: inverse agonist, increase of basal cAMP, read-out: EC50 at MT1.

One may read the Emax as the maximal effect, on the per cent scale that the assay sets. One may read the AUC as concentration integrated over time. Low values mean low exposure, high ones high exposure. Usually Cmax stands for the peak of the concentration-time curve. The Vss is the apparent volume that relates the amount in the body to the concentration in plasma or blood. Low readings indicate confinement near the circulation, high ones extensive tissue distribution.

Like-named read-outs stand apart in the source and are kept apart here.

Chain of hMT1 (P48039 whole entry): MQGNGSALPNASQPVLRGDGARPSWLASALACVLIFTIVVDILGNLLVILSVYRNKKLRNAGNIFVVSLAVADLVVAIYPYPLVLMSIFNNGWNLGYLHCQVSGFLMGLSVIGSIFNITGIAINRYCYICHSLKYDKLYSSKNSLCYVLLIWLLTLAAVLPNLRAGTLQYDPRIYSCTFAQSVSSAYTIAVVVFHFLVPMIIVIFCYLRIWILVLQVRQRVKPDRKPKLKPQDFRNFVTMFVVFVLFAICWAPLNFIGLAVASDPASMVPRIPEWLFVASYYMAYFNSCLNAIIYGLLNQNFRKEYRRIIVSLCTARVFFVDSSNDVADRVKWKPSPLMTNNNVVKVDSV

On to `COc1ccc(Br)c(CNc2cccnc2)c1` [ZINC128734226], for which the “hMT2 pEC50” value at MT2 is 8.15±0.09. Also, the Emax on MT2 (HEK293, FIG. 3F, normalized to maximal melatonin effect, read-out: hMT2 Emax) was 89 ± 3%. At MT2 (HEK293, Table 2, agonist, normalized to melatonin response, read-out: MT2 % Emax (converted)), the Emax is 89%. For the same compound, on MT2 (HEK293, Table 4, agonist, read-out: Emax % MT2), the Emax amounted to 80%. For the same compound, the “pIC50 MT2” value on MT2 (Table 4, agonist) is given as 8.2. Also, the EC50 at MT2 (agonist, isoproterenol-stimulated cAMP inhibition, read-out: EC50 at MT2) stood at 6.3 nM. Besides, in data set [1], the AUC came to 282.1 ng·h/mL, the CL is given as 117.9 mL/min/kg, the highest concentration (Cmax) is 1922.8 ng/mL and the Vss was 1.11 L/kg. Besides, in data set [1], the “Brain/Plasma Ratio” value is given as 1.58 (30′) and the T1/2 came to 17.4 min. In addition, the “hMT1 pEC50” value on hMT1 was 6.83±0.17. Besides, the Emax on hMT1 (HEK293, FIG. 3F, normalized to maximal melatonin effect, read-out: hMT1 Emax) came to 79 ± 3%. Further, at hMT1 (HEK293, Table 2, agonist, normalized to melatonin response, read-out: MT1 % Emax (converted)), the Emax was 79%. Besides, the Emax at hMT1 (HEK293, Table 4, agonist, read-out: Emax % MT1) was 48%. At hMT1 (Table 4, agonist), the “pIC50 MT1” value is recorded as 6.8.

On to `CC(C)c1ccc(CNc2cccc(-c3ncn[nH]3)c2)cc1` [ZINC157673384], for which the “hMT2 Emax” value at MT2 (setting [2]) is −153±14%. Moreover, at MT2, the “hMT2 pEC50” value came out at 6.18±0.04, the “hMT2 Schild slope” value was 1.0±0.1 and the “hMT2 pKB” value was determined as 6.7±0.1. In addition, the “MT2 % Emax” value on MT2 (setting [3]) came to 153 ± 14%. The “pEC50 MT2 (IA)” value on MT2 (Table 4, IA (inverse agonist)) is 6.5. In data set [1], this compound registered an AUC of 563.8 ng·h/mL, a CL of 58.48 mL/min/kg, a Cmax of 1299.6 ng/mL and a Vss of 1.38 L/kg. Further, in data set [1], the “Brain/Plasma Ratio” value is reported as 1.43 (30′) and the T1/2 came out at 19.2 min. Also, at hMT1 (setting [2]), the “hMT1 Emax” value is listed as −47±12%. For the same compound, on hMT1, the “hMT1 pEC50” value turned out to be 7.68±0.09, the inverse agonist efficacy worked out at 47% and the “selectivity for MT1 over MT2” value came out at 30 fold. Moreover, on hMT1 (setting [4]), the “hMT1 Schild slope” value came to 0.80±0.04 and the “hMT1 pA2” value worked out at 7.9±0.1. On hMT1 (setting [3]), the “MT1 % Emax” value is on record as 47 ± 12%. In addition, on hMT1 (Table 4, IA (inverse agonist)), the “pEC50 MT1 (IA)” value is recorded as 7.7. Also, at hMT1 (setting [5]), the EC50 came to 21 nM.

Turning to `Clc1ccc(CNc2cccc(-c3nnc[nH]3)c2)c(Br)c1` [ZINC555417447], at MT2, the “hMT2 pEC50” value was found to be 5.66±0.10, the “hMT2 Schild slope” value worked out at 1.3±0.4 and the “hMT2 pKB” value is reported as 6.2±0.1. Besides, at MT2 (HEK293, FIG. 3D-3E, normalized to isoproterenol-stimulated basal activity, read-out: hMT2 Emax), the Emax is -84 ± 9%. Also, the Emax at MT2 (HEK293, Table 2, cell marked Inverse (inverse agonist), read-out: MT2 % Emax (converted)) was 84%. For the same compound, the EC50 on MT2 (Table 4, IA (inverse agonist), read-out: pEC50 MT2 (IA) (converted)) was 1000 nM. In data set [1], this compound displayed an AUC of 494.5 ng·h/mL, a CL of 67.11 mL/min/kg, a Cmax of 1948.6 ng/mL and a Vss of 1.11 L/kg. In addition, in data set [1], the “Brain/Plasma Ratio” value is 3.03 (30′) and the T1/2 came to 16.2 min. On hMT1, the “hMT1 pEC50” value is listed as 7.39±0.10, the inverse agonist efficacy was 62% and the “selectivity for MT1 over MT2” value is 50 fold. Further, on hMT1 (HEK293, FIG. 3D-3E, normalized to isoproterenol-stimulated basal activity, read-out: hMT1 Emax), the Emax is -62 ± 13%. Besides, at hMT1 (HEK293, Table 2, cell marked Inverse (inverse agonist), read-out: MT1 % Emax (converted)), the Emax was 62%. Further, at hMT1 (setting [4]), the “hMT1 Schild slope” value is on record as 0.98±0.03 and the “hMT1 pKB” value stood at 7.4±0.1. Further, the EC50 on hMT1 (Table 4, IA (inverse agonist), read-out: pEC50 MT1 (IA) (converted)) was 50.1 nM. Further, the EC50 on hMT1 (setting [5]) was determined as 41 nM.
